Measured values from DBAASP.
Converted amounts (≈) assume the structure as drawn. One block for each compound: values may come before it.

Key:
Experiment in all cases: ≥ marks a high value that may be exact or a test limit, other limits are often not marked, values filed in µg/mL are converted to µM
[1] = test system: Bacillus subtilis KCTC 3068
Enterococcus faecalis VR = test system: Enterococcus faecalis VR
Enterococcus faecalis = test system: Enterococcus faecalis
Enterococcus faecium VR = test system: Enterococcus faecium VR
Enterococcus faecium = test system: Enterococcus faecium
[2] = test system: Escherichia coli KCTC 1682
[3] = test system: Pseudomonas aeruginosa KCTC 1637
[4] = test system: Salmonella typhimurium KCTC 1926
[5] = test system: Staphylococcus aureus KCTC 1621
Staphylococcus aureus MR = test system: Staphylococcus aureus MR
[6] = test system: Staphylococcus epidermidis KCTC 1917
[7] = test system: Acinetobacter baumannii ATCC 15308
Citrobacter sp. = test system: Citrobacter sp.
Enterobacter cloacae = test system: Enterobacter cloacae
[8] = test system: Escherichia coli ATCC 25922
Klebsiella pneumoniae = test system: Klebsiella pneumoniae
[9] = test system: Pseudomonas aeruginosa ATCC 15442
[10] = test system: Staphylococcus aureus ATCC 25923
Staphylococcus aureus = test system: Staphylococcus aureus
Streptococcus pneumoniae = test system: Streptococcus pneumoniae
[11] = test system: Bacillus cereus ATCC 11778
[12] = test system: Klebsiella pneumoniae ATCC 700603
[13] = test system: Pseudomonas aeruginosa ATCC 27853
[14] = test system: Salmonella enterica subsp. enterica serovar Enteritidis ATCC 13076
[15] = test system: Serratia marcescens ATCC 21202
[16] = test system: Staphylococcus aureus ATCC 29213
[17] = test system: Streptococcus pyogenes ATCC 19615
[18] = test system: Aspergillus niger ATCC 16404
[19] = test system: Candida albicans ATCC 10231
[20] = test system: Candida glabrata ATCC 15126
[21] = test system: Enterococcus faecalis PCM 2673
[22] = test system: Escherichia coli ATCC 23506
[23] = test system: Pseudomonas aeruginosa ATCC 9027
[24] = test system: Staphylococcus aureus ATCC 9144
[25] = test system: Streptococcus pneumoniae ATCC 49619
[26] = test system: Streptococcus gordonii ATCC 10558
[27] = test system: Streptococcus oralis ATCC 9811
[28] = test system: Streptococcus sanguinis ATCC 10556
[29] = test system: Bacillus subtilis CMCC 63501
Candida albicans CA2761 = test system: Candida albicans CA2761
[30] = test system: Candida albicans CGMCC 2.2086
[31] = test system: Candida krusei CGMCC 2.1857
[32] = test system: Candida tropicalis CGMCC 2.1975
Escherichia coli EC183 = test system: Escherichia coli EC183
Escherichia coli UB1005 = test system: Escherichia coli UB1005
[33] = test system: Salmonella enterica subsp. enterica serovar Typhimurium C77-31
[34] = test system: Staphylococcus epidermidis ATCC 12228

SMILES: CC[C@H](C)[C@H](NC(=O)[C@H](CC(C)C)NC(=O)CNC(=O)CNC(=O)[C@H](CC(C)C)NC(=O)[C@@H](N)Cc1ccccc1)C(=O)N[C@@H](CCCCN)C(=O)N[C@@H](Cc1c[nH]c2ccccc12)C(=O)N[C@@H](Cc1c[nH]c2ccccc12)C(=O)N1CCC[C@H]1C(=O)N[C@@H](Cc1c[nH]c2ccccc12)C(=O)N[C@@H](CCCN=C(N)N)C(=O)N[C@@H](CCCN=C(N)N)C(N)=O [FLGGLIKWWPWRR]
- MIC [7]: 18.2 µM (≈ 31.2 µg/mL)
- MIC (Citrobacter sp.): ≥ 146 µM
- MIC (Enterobacter cloacae): ≥ 146 µM
- MIC [8]: 4.55 µM (≈ 7.81 µg/mL)
- MIC (Klebsiella pneumoniae): > 146 µM
- MIC [9]: 18.2 µM (≈ 31.2 µg/mL)
- MIC [10]: 4.55 µM (≈ 7.81 µg/mL)
- MIC (Staphylococcus aureus): 4.55 µM (≈ 7.81 µg/mL)
- MIC (Streptococcus pneumoniae): 4.55 µM (≈ 7.81 µg/mL)

SMILES: CC[C@H](C)[C@H](NC(=O)[C@H](CC(=O)O)NC(=O)[C@H](CCSC)NC(=O)[C@H](CC(C)C)NC(=O)CN)C(=O)N[C@@H](Cc1ccccc1)C(=O)N[C@@H](CCCCN)C(=O)N[C@H](C(=O)N[C@@H](C)C(=O)N[C@H](C(=O)N[C@@H](CC(N)=O)C(=O)N[C@@H](CCCCN)C(=O)N[C@@H](CC(C)C)C(=O)N[C@@H](CC(C)C)C(=O)N[C@@H](C)C(=O)N[C@@H](C)C(=O)NCC(=O)N[C@@H](CCSC)C(=O)N[C@@H](CC(N)=O)C(=O)N[C@@H](CCCCN)C(=O)N1CCC[C@H]1C(=O)N[C@@H](CCCN=C(N)N)C(=O)N[C@H]1CSSC[C@@H](C(=O)O)NC(=O)[C@H](Cc2cnc[nH]2)NC(=O)[C@H](C)NC(=O)[C@H](C)NC(=O)[C@H](CCCCN)NC1=O)C(C)C)C(C)C [GLMDIFKVAVNKLLAAGMNKPRCKAAHC]
- MIC [11]: 17.8 µM (≈ 53.4 µg/mL)
- MIC [8]: 9.35 µM (≈ 28 µg/mL)
- MIC [12]: 9.35 µM (≈ 28 µg/mL)
- MIC [13]: > 33.3 µM
- MIC [14]: 17.8 µM (≈ 53.4 µg/mL)
- MIC [15]: 9.35 µM (≈ 28 µg/mL)
- MIC [16]: 9.35 µM (≈ 28 µg/mL)
- MIC [17]: 17.8 µM (≈ 53.4 µg/mL)

SMILES: CC[C@H](C)[C@H](NC(=O)CNC(=O)[C@H](CCCCN)NC(=O)[C@H](Cc1ccccc1)NC(=O)[C@H](CC(C)C)NC(=O)[C@H](CCCCN)NC(=O)[C@H](CCCCN)NC(=O)[C@H](C)NC(=O)[C@H](CCCCN)NC(=O)[C@H](CCCCN)NC(=O)[C@H](Cc1ccccc1)NC(=O)CNC(=O)[C@H](CCCCN)NC(=O)[C@H](C)NC(=O)[C@H](Cc1ccccc1)NC(=O)[C@@H](NC(=O)[C@H](CCCCN)NC(=O)[C@@H](NC(=O)[C@H](CC(C)C)NC(=O)[C@H](CCCCN)NC(=O)[C@@H](N)CCCCN)[C@@H](C)CC)C(C)C)C(=O)NCC(N)=O [KKLIKVFAKGFKKAKKLFKGIG]
- MIC [18]: 12.9 µM (≈ 32 µg/mL)
- MIC [19]: 103 µM (≈ 256 µg/mL)
- MIC [20]: ≥ 51.7 µM
- MIC [21]: 25.8 µM (≈ 64 µg/mL)
- MIC [22]: 0.807 µM (≈ 2 µg/mL)
- MIC [8]: 3.23 µM (≈ 8 µg/mL)
- MIC [12]: 0.101 µM (≈ 0.25 µg/mL)
- MIC [23]: 0.807 µM (≈ 2 µg/mL)
- MIC [10]: 51.7 µM (≈ 128 µg/mL)
- MIC [24]: 25.8 µM (≈ 64 µg/mL)
- MIC [25]: 1.61 µM (≈ 4 µg/mL)

SMILES: CC[C@H](C)[C@H](NC(=O)[C@H](Cc1c[nH]c2ccccc12)NC(=O)[C@H](CCCCN)NC(=O)[C@H](CC(C)C)NC(=O)[C@@H](NC(=O)[C@H](CCCCN)NC(=O)CNC(=O)[C@@H](NC(=O)[C@H](CCCCN)NC(=O)[C@H](CCCCN)NC(=O)[C@H](CC(C)C)NC(=O)[C@H](CCCN=C(N)N)NC(=O)[C@H](CCCCN)NC(=O)[C@H](CCCN=C(N)N)NC(=O)[C@@H](N)[C@@H](C)O)[C@@H](C)CC)C(C)C)C(N)=O [TRKRLKKIGKVLKWI]
- MIC [29]: 2 µM (≈ 3.73 µg/mL)
- MIC (Candida albicans CA2761): ≥ 128 µM
- MIC [30]: ≥ 64 µM
- MIC [31]: 8 µM (≈ 14.9 µg/mL)
- MIC [32]: 2 µM (≈ 3.73 µg/mL)
- MIC [8]: 8 µM (≈ 14.9 µg/mL)
- MIC (Escherichia coli EC183): 2 µM (≈ 3.73 µg/mL)
- MIC (Escherichia coli UB1005): 4 µM (≈ 7.47 µg/mL)
- MIC [33]: 8 µM (≈ 14.9 µg/mL)
- MIC [10]: 32 µM (≈ 59.7 µg/mL)
- MIC [16]: 32 µM (≈ 59.7 µg/mL)
- MIC [34]: 32 µM (≈ 59.7 µg/mL)

Further lines, results first:

- MIC [1]: 30 µM
- MIC (Enterococcus faecalis VR): 30 µM
- MIC (Enterococcus faecalis): 30 µM
- MIC (Enterococcus faecium VR): 30 µM
- MIC (Enterococcus faecium): 30 µM
- MIC [2]: 15 µM
- MIC [3]: 30 µM
- MIC [4]: 30 µM
- MIC [5]: 30 µM
- MIC (Staphylococcus aureus MR): 30 µM
- MIC [6]: 15 µM
SMILES: CC(C)C[C@H](NC(=O)[C@H](CC(C)C)NC(=O)[C@H](CS)NC(=O)[C@H](Cc1cnc[nH]1)NC(=O)[C@H](C)NC(=O)[C@H](C)N)C(=O)N[C@@H](CCCN=C(N)N)C(=O)NCC(=O)N[C@@H](CC(N)=O)C(=O)N[C@@H](CCCN=C(N)N)C(N)=O [AAHCLLRGNR]

- MIC [26]: ≥ 186 µM
- MIC [27]: ≥ 155 µM
- MIC [28]: ≥ 186 µM
SMILES: CC[C@H](C)[C@H](NC(=O)CNC(=O)CNC(=O)CNC(=O)CNC(=O)[C@H](Cc1c[nH]c2ccccc12)NC(=O)[C@@H](NC(=O)[C@H](Cc1cnc[nH]1)NC(=O)[C@H](CCSC)NC(=O)CNC(=O)[C@@H]1CCCN1C(=O)[C@H](C)NC(=O)[C@H](CC(=O)O)NC(=O)[C@@H]1CCCN1C(=O)[C@H](CC(C)C)NC(=O)[C@H](CCCCN)NC(=O)[C@@H](N)CCCN=C(N)N)[C@@H](C)O)C(=O)N[C@@H](CC(N)=O)C(=O)N[C@H](C(=O)N[C@@H](CC(C)C)C(=O)N[C@@H](CCC(N)=O)C(=O)N[C@@H](CCCCN)C(=O)N[C@@H](Cc1ccc(O)cc1)C(=O)N[C@@H](Cc1ccc(O)cc1)C(=O)N[C@@H](CS)C(=O)N[C@@H](CCCN=C(N)N)C(=O)N[C@H](C(=O)N[C@@H](CCCN=C(N)N)C(=O)NCC(=O)O)C(C)C)[C@@H](C)O [RKLPDAPGMHTWGGGGINTLQKYYCRVRG]
